From publication PMC6938345, “Inhibition of complement activation, myeloperoxidase, NET formation and oxidant activity by PIC1 peptide variants” (PLoS ONE, 2019)

What was measured:
[1] = Peptide solubility in water
Method: (PA) (Table 1) were synthesized by New England Peptide (Gardner, MA) to >90% purity. Sarcosine variants and PEG were dissolved in water and the pH was adjusted with NaOH. PA was dissolved in DMSO and then brought up to the final concentration with water resulting in 30% DMSO and pH adjusted. Antibody sensitized sheep erythrocytes (EA), purified C1q and factor B-depleted human sera were purchased from Complement Technology (Tyler, TX). Purified myeloperoxidase was purchased from Lee BioSolutions (Maryland Heights, MO) and tetramethylbenzidine (TMB) and PicoGreen were purchased from Thermo Fisher (Waltham MA).
(PA), peptide derivatives were synthesized with sarcosine residues substituted at all 15 positions, included a peptide in which the vicinal cysteines at positions 9 and 10 (C9,C10) were replaced with a single sarcosine residue (Table 1).

[2] = test system: antibody-initiated complement activation (type O sera + type AB red blood cells); assay: ABO incompatibility hemolytic assay (CH50-type, ex vivo); type: cell-based, human; conditions: peptides 1.8 mM
Method: For hemolytic complement assays, human red blood cells (RBCs) from type AB donors were purified, washed and standardized to 1 × 10^9 cells/ml, as previously described. Human sera from type O donors at a 20% final concentration was combined with 1 mM PIC1 or sarcosine variant peptides and the volume was brought up to 0.15 ml with GVBS^++ and 0.5 ml RBCs. For factor B-depleted sera hemolytic assays, a final of 0.005% factor B depleted sera was incubated with 1 mM PIC1 or sarcosine variant peptides with 0.1 ml antibody-sensitized sheep red blood cells (EA) in a final volume of 0.75 ml GVBS^++. The samples were incubated for 1 hour at 37 °C and then 1.0 ml of GVBS^-—was added to the factor B-depleted samples to stop the reaction. The samples were spun at 3,000 rpm for 5 minutes and the supernatant was collected and read at 412 nm. Values are represented as a percent of the positive control, which consists of human O sera and AB red blood cells in GVBS^++ buffer.
In order to evaluate the extent to which the peptide variants inhibit antibody-initiated complement activation, we tested them in two hemolytic assays including an ABO incompatibility ex vivo assay (Fig 1A) and a classical pathway CH50-type assay in factor B-depleted sera (Fig 1B). In the ABO incompatibility hemolytic assay, purified erythrocytes from a ‘type AB+’ donor are incubated with sera from a ‘type O’ subject containing anti-A and anti-B antibodies; peptides were tested at 1.8 mM. […] We then performed a CH50-type hemolytic assay, with antibody-sensitized sheep erythrocytes, isolating the classical pathway by utilizing factor B-depleted sera; peptides were tested at 0.4 mM.
Fig 1 Sarcosine variant inhibition of complement activation in hemolytic assays and C1q binding. A) Inhibition of ABO incompatibility hemolysis in a CH50-type assay. Peptides are at a final concentration of 1.8 mM. […] Data are the means of n = 4 independent experiments + SEM. B) Inhibition of classical complement pathway-mediated hemolysis in factor B-depleted sera in a CH50-type assay. Peptides are at a final concentration of 0.4 mM. Data are the means of n = 4 independent experiments + SEM. C) Binding of increasing concentrations of sarcosine variants to purified C1q in an ELISA-type assay. Data are the means of n = 3 independent experiments ± SEM. D) Half-maximal binding concentrations were calculated for each peptide’s binding curve.

MPO heme ring = target: T1, MPO heme ring (Homo sapiens, UniProt P05164); assay: MPO heme ring oxidative degradation; type: biochemical; conditions: peptides 3.0 mM, H2O2, absorbance 300-550 nm
T1 construct: purchased Lee BioSolutions (Maryland Heights, MO)
T1 sequence (P05164 49-745): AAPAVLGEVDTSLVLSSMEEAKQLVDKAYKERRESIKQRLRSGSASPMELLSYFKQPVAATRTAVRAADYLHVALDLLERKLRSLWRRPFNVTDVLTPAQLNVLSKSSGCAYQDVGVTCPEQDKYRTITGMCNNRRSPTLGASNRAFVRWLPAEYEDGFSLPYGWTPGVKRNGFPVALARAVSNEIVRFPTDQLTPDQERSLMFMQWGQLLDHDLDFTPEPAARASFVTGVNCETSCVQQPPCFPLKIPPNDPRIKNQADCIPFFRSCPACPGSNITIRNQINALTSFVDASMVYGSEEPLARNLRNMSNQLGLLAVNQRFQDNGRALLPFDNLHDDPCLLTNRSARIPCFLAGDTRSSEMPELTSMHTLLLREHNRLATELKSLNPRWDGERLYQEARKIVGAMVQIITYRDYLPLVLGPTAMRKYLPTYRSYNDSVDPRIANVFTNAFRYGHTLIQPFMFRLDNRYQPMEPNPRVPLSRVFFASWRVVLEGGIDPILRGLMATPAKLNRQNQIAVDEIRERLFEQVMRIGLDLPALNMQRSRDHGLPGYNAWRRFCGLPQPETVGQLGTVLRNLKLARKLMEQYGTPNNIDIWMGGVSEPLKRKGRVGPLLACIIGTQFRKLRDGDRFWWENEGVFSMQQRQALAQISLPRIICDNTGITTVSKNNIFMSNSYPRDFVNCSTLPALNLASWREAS
Method: In a 96 well plate, 0.025 ml of 1.7 mg/ml MPO was combined with 0.00125 ml of 0.5% H2O2 and 3 mM PIC1 or sarcosine variant peptides in a total volume of 0.125 ml PBS and left to incubate at room temperature for 2 minutes. Using a 96 well plate reader, the wells were scanned for absorbance from 300–550 nm to generate curves reflecting the iron state in the MPO heme ring, as previously reported.
We then evaluated the ability of the variants to prevent degradation of the heme ring in the MPO molecule. […] This can be evaluated via spectrometric measurements of absorption of wavelengths from 300–550 nm. Absorption measurements were made over this spectrum for all variants (Fig 3A–3H). […] The heme ring preservation for these two variants was greater than that for the parent compound, PA-dPEG24.
Fig 3 Sarcosine variant protection of MPO heme ring from oxidative degradation. Absorbance spectra for the heme ring is shown in the absence of hydrogen peroxide (MPO) in red, in the presence of hydrogen peroxide (MPO+H2O2) in black, in the presence of peptide in blue, and in the presence of hydrogen peroxide and peptide together in green. […] B-H) Peptides A2 – C9,10 are denoted in the legends. Peptides were tested at a concentration of 3.0 mM.

[3] = Total Antioxidant Capacity (TAC) assay
Method: The TAC (Total Antioxidant Capacity) Assay (Cell Biolabs, Inc, San Diego, CA) was used to measure the antioxidant capacity of the sarcosine variants based on the reduction of copper (II) to copper (I). The kit protocol was performed as recommended.
Antioxidant activity is measured in copper reducing equivalents (CRE). Peptides were tested over a range of concentrations from 0.03–0.25 mM then compared to the standard. Data are the means of n = 3 independent experiments + SEM.

[4] = test system: purified human neutrophils; assay: NETosis assay, free DNA by PicoGreen; type: cell-based; conditions: Average of n = 3; peptide 2 mM
Method: NETosis assays with immune complexes were performed as previously described. Briefly, normal human serum was stimulated with ovalbumin-antiovalbumin immune complexes in GVBS^++ for 30 minutes at 37 °C. This mixture along with 0.05% H2O2 was then added to purified human neutrophils resuspended in RPMI with or without sarcosine variants (2 mM), allowing NETosis to occur. Quantitation of free DNA released from the neutrophils was performed using PicoGreen. Slides were stained with DAPI (Southern Biotech, Birmingham, AL) and the following antibodies, mouse anti-elastase (Invitrogen, Carlsbad, CA) was used with the secondary goat anti-mouse Alexa Fluor 568 (Novus Biologicals, Centennial, CO) and rabbit anti-histone H3 (Abcam, Cambridge MA) with goat anti-rabbit Alexa Fluor 488 (Novus Biologicals) to visualize formation of NETs which were imaged with fluorescence microscopy with an Olympus BX53 microscope.
In this assay purified human neutrophils are stimulated with normal human serum activated with ovalbumin-antiovalbumin immune complexes and hydrogen peroxide. Free DNA expressed from the neutrophils is then measured in a PicoGreen assay.
Fig 5 Sarcosine variant inhibition of NET formation. Fluorescence microscopy images of NET formation after neutrophil stimulation with immune complexes (IC) and hydrogen peroxide (H2O2) compared with neutrophil only control. Variant I8 inhibition of NET formation is shown in the third row. Histones are probed with anti-histone antibody (αhistone), neutrophil elastase is probed with anti-neutrophil elastase (αNE) and DNA is stained with DAPI. Representative images are shown. […] Purified human neutrophils were stimulated with 2% normal human sera pre-incubated with ovalbumin-antiovalbumin immune complexes, and 0.05% H2O2. Sarcosine peptides and PIC1 were added to the sera to a final concentration of 2 mM. Data are the means of n = 3 independent experiments + SEM.

CC[C@H](C)[C@H](N)C(=O)N[C@@H](C)C(=O)N[C@@H](CC(C)C)C(=O)N[C@H](C(=O)N[C@@H](CC(C)C)C(=O)N[C@@H](CCC(=O)O)C(=O)N1CCC[C@H]1C(=O)N[C@H](C(=O)N(C)CC(=O)N[C@@H](CS)C(=O)N[C@@H](CCC(N)=O)C(=O)N[C@@H](CCC(=O)O)C(=O)N[C@@H](CCCNC(=N)N)C(=O)N[C@@H](C)C(=O)N[C@@H](C)C(=O)O)[C@@H](C)CC)[C@@H](C)CC [C9]
solubility in water (in words) [1]: soluble in water | ABO hemolysis ([2]; Avg of n = 4, concentration basis of PIC1 not stated): 18.25 % of Control | inhibition of ABO incompatible hemolysis (in words) [2]: to a greater extent than did the PA-dPEG24 | protection of MPO heme ring from degradation (in words) (MPO heme ring): near perfect preservation | TAC assay, antioxidant activity ([3]; Avg of n = 3): 845.83 copper reducing equivalents (CRE) | antioxidant capacity (in words) ([3]; TAC assay): approximately half of the antioxidant capacity as PA-dPEG24 | PICO green - NETs, free DNA release [4]: 38
